pKi: −log10 of the molar value. Values joined by “and” are separate entries in the source; they are usually repeats but may differ in a detail not shown here. Identical values can stand only once. Like-named read-outs stand apart in the source and are kept apart here.
How the values were obtained:
5HT3 receptor = biological target: T1, 5HT3 receptor (Mus musculus, UniProt P23979); test: In vitro 5HT3 receptor binding with [3H]GR 65630
T1 construct: Cells were homogenized in tris.HCl buffer; endogenous in cells; host or cells: NxG 108CC15 (NG108-15) cell membranes
T1 sequence (P23979 24-489): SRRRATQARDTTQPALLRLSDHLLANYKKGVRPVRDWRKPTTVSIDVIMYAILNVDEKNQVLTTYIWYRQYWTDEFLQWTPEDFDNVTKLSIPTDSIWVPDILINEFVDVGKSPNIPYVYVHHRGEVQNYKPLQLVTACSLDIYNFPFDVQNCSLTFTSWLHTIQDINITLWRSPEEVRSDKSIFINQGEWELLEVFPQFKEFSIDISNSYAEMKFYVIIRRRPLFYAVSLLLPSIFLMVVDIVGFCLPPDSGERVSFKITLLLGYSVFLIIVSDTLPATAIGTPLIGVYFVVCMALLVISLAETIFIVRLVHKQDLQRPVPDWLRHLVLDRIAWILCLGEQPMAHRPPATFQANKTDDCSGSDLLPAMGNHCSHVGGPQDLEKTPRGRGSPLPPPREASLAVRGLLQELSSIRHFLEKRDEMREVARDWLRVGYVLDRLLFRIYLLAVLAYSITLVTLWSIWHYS
Protocol: The incubation was run for 60 minutes at 37° C. Labelled membranes were collected and […] by rapid filtration under suction over […] filters (presoaked in 0.1% polyethyleneimine for at least 1 hour) using a 40-well filtration manifold. […] All experiments were repeated independently at least two times. Radioactivity on the filters was counted in a Packard Tri-carb 1600CA liquid scintillation analyzer. Counting data were collected directly in a Macintosh SE personal computer and further transferred to a Macintosh II personal computer. Counting data from assays in the presence of a compound were automatically expressed as percent of total binding measured in the absence of test compound. Inhibition curves plotting percent of total binding versus the log concentrations of the test compound were automatically generated.

Beagle dogs [1] = test: MgSO4 induced intestinal lavage in dogs; type: in vivo, dog; conditions: Canis lupus familiaris; po, 1 hour before oral MgSO4 (200 ml); liquid stools within 4 hours; read-out: MgSO4 induced intestinal lavage ED50 (95% c.l.)
Protocol: (§1) Beagle dogs of both sexes and varying in body weight were used. During the experiments, the dogs were individually housed in cages. They were uniquely identified by an ear tattoo number (received at the time of weaning). The animals were fasted overnight but were given free access to fresh tap water via automatic drinking nipples in the back of the cage.
Beagle dogs (of both sexes and varying in body weight, 16 hours deprived from food) were orally pretreated with the test compound (0.5 ml/kg) and challenged 1 hour later with an oral administration of magnesium sulphate (MgSO4.7H2O, 64 g/l, 0.26 M; 200 ml). The onset of MgSO4-induced intestinal lavage was assessed over a period of 4 hours after challenge. Liquid stools within 4 hours occured almost never in control animals treated with distilled water (3.0% false positives; n>100) and were considered to reflect significant acceleration of the MgSO4-induced intestinal lavage. Doses in the active dose range were given to five animals each, tested in separate experimental sessions including solvent-treated control animals.

Beagle dogs [2] = test: KleanPrep-induced intestinal lavage in dogs; type: in vivo, dog; conditions: for ED50: Canis lupus familiaris, oral pretreatment one hour earlier
Protocol: as §1
The dogs were orally pretreated with test compound or distilled water (0.5 ml/kg) and 1 hour later challenged by gavage with KleanPrep® solution. Dependent on the type of experiment, the KleanPrep® solution was administered more than once at 15 minutes intervals. The standard administration volume was 200 ml. The occurrence of liquid stools at 1, 2, 3, 4, 5 and 6 hours after the first administration of KleanPrep® was noted. The KleanPrep® solution consisted of polyethyleneglycol 3350 (59 g/l), sodium sulfate (5.685 g/l), sodium hydrogencarbonate (1.685 g/l), sodium chloride (1.465 g/l), potassium chloride (0.7425 g/l), aspartate (0.0494 g/l) and vanille (0.3291 g/l).
Each dose of the test compounds was given to 5 animals.

[3] = fourth experiment: 2×200 ml KleanPrep, relative to ED50 for within 4 hours

Compound	pKi (5HT3 receptor)	ED50 (Beagle dogs [1])	further results
Cn1cc(C(=O)[C@@H]2CCc3nc[nH]c3C2)c2ccccc21 [(−)-YM-060]	9.85	0.0012 mg/kg	
COc1cc(N)c(Cl)cc1C(=O)NC1CN2CCC1CC2 (racemic) [(±)-Zacopride]		0.023 mg/kg	
COc1cc(N)c(Cl)cc1C(=O)NC1CCN2CCCC1C2 (racemic) [(±)-Renzapride]	8.00	0.074 mg/kg	
CN1[C@@H]2CC[C@H]1C[C@@H](OC(=O)c1cc(Cl)cc(Cl)c1)C2 [Bemesetron]	8.10	0.77 mg/kg	
Cc1nccn1CC1CCc2c(c3ccccc3n2C)C1=O (racemic) [(±)-Ondansetron]		0.097 mg/kg	
CN1C2CCCC1CC(NC(=O)c1nn(C)c3ccccc13)C2 (stereo not drawn) [(endo)-Granisetron]		0.014 mg/kg	
CC(C)n1c(=O)n(C(=O)N[C@H]2C[C@H]3CC[C@@H](C2)N3C)c2ccccc21 [BIMU-8]	9.54	0.016 mg/kg	
CN1[C@@H]2CC[C@H]1C[C@@H](OC(=O)c1c[nH]c3ccccc13)C2 [(endo)-Tropisetron]		0.074 mg/kg	
CO[C@@H]1CN(CCCNc2nccc(=O)[nH]2)CC[C@@H]1NC(=O)c1cc(Cl)c(N)c2c1OC(C)(C)C2 (relative stereo) [Compound A, (−)-cis-4-amino-5-chloro-2,3-dihydro-N-[1-[3-[(3,4-dihydro-4-oxo-2-pyrimidinyl)amino]propyl]-3-methoxy-4-piperidinyl]-2,2-dimethyl-7-benzofurancarboxamide]		0.0027 mg/kg	ED50 (Beagle dogs [2]; read-out: ED50 liquid stools within 1 hour, fourth experiment: 2×200 ml KleanPrep): 0.085 mg/kg; ED50 (Beagle dogs [2]; fourth experiment: 2×200 ml KleanPrep, read-out: ED50 liquid stools within 4 hours): 0.0036 mg/kg; dose increment for liquid stools within 1 hour (Beagle dogs [2]; [3]): 24 times; dose increment for liquid stools within 2 hours (Beagle dogs [2]; [3]): 3 times; dose increment for liquid stools within 3 hours (Beagle dogs [2]; [3]): 1.1 times; dogs displaying liquid stools within 2 hours after KleanPrep administration (Beagle dogs [2]; second experiment: single 200 ml KleanPrep, 0.16 mg/kg p.o. one hour earlier): three out of five; dogs displaying first liquid stool within 2 hours after first administration of KleanPrep (Beagle dogs [2]; third experiment: 4×200 ml KleanPrep at 15 minute intervals, 0.16 mg/kg p.o. one hour earlier): all five; time of first liquid stool after first administration of KleanPrep (individual dogs) (Beagle dogs [2]; third experiment: 4×200 ml KleanPrep at 15 minute intervals, 0.16 mg/kg p.o. one hour earlier, 0.16 mg/kg): 38 min and 39 min and 42 min and 52 min and 77 min; pKi (5HT3 receptor; N×G 108CC15 cell membranes, [3H]GR 65630 2 nM, 60 min 37° C, logarithmic mean and 95% confidence limits, read-out: 5HT3 receptor Ki (95% c.l.)): 9.24
CCn1c(=O)n(C(=O)OC2C[C@H]3CC[C@@H](C2)N3C)c2ccccc21 (stereo partly drawn) [DAU-6236]	8.18	0.049 mg/kg	

From US6555546B2, “Use of 5HT3 antagonists for promoting intestinal lavage” (Janssen Pharmaceutics, N.V., priority 1997, dated 2003)
